# From patent US9422267B2, “Fused pyrimidine compounds and use thereof” (Medivation Technologies, Inc., priority 2012, dated 2016)
# How the values were obtained:
# Type in all cases: biochemical
# [1] = biological target: T1, ABL (Homo sapiens, UniProt P00519); experiment: Caliper kinase profiling: ABL; conditions: read-out: Average % Inh @ 1 μM
# T1 construct: purchased Caliper LifeSciences (ProfilerPro Kinase Selectivity Assay Kits)
# [2] = biological target: T2, ABL1(G250E) (Homo sapiens, UniProt P00519, G250E); experiment: Caliper kinase profiling: ABL1(G250E); conditions: read-out: Average % Inh @ 1 μM
# T2 construct: purchased Caliper LifeSciences (ProfilerPro Kinase Selectivity Assay Kits)
# [3] = biological target: T3, Arg (Homo sapiens, UniProt P42684); experiment: Caliper kinase profiling: Arg
# T3 construct: purchased Caliper LifeSciences (ProfilerPro Kinase Selectivity Assay Kits)
# [4] = biological target: EPHB1 (Homo sapiens, UniProt P54762); experiment: Caliper kinase profiling: EPHB1; conditions: EPHB1, 1 μM; read-out: Average % Inh @ 1 μM
# [5] = biological target: MST1R (Homo sapiens, UniProt Q04912); experiment: Caliper kinase profiling: MST1R; conditions: read-out: Average % Inh @ 1 μM
# [6] = biological target: T4, NuaK1 (Homo sapiens, UniProt O60285); experiment: Caliper kinase profiling: NuaK1
# T4 sequence (O60285 1-661): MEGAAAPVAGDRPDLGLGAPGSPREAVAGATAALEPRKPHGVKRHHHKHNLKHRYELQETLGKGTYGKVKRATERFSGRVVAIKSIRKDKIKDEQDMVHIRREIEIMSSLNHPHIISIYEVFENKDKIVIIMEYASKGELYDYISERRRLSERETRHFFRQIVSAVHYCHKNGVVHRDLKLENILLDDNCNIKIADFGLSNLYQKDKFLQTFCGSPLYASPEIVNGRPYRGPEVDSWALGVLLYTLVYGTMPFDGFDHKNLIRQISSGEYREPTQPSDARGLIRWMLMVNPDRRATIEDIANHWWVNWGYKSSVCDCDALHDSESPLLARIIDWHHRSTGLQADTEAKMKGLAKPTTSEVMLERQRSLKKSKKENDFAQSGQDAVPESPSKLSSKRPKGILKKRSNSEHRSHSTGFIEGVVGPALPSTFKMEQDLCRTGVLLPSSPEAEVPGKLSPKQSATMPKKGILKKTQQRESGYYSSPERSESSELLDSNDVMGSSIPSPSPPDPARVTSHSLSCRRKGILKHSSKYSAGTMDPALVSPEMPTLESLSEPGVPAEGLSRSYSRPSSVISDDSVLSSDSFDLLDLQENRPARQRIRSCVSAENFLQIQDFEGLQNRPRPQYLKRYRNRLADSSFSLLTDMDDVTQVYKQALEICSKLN
# [7] = biological target: RET (Homo sapiens, UniProt P07949); experiment: Caliper kinase profiling: RET
# [8] = biological target: T5, TYRO3 (Homo sapiens, UniProt Q06418); experiment: Caliper kinase profiling: TYRO3
# T5 sequence (Q06418 41-890): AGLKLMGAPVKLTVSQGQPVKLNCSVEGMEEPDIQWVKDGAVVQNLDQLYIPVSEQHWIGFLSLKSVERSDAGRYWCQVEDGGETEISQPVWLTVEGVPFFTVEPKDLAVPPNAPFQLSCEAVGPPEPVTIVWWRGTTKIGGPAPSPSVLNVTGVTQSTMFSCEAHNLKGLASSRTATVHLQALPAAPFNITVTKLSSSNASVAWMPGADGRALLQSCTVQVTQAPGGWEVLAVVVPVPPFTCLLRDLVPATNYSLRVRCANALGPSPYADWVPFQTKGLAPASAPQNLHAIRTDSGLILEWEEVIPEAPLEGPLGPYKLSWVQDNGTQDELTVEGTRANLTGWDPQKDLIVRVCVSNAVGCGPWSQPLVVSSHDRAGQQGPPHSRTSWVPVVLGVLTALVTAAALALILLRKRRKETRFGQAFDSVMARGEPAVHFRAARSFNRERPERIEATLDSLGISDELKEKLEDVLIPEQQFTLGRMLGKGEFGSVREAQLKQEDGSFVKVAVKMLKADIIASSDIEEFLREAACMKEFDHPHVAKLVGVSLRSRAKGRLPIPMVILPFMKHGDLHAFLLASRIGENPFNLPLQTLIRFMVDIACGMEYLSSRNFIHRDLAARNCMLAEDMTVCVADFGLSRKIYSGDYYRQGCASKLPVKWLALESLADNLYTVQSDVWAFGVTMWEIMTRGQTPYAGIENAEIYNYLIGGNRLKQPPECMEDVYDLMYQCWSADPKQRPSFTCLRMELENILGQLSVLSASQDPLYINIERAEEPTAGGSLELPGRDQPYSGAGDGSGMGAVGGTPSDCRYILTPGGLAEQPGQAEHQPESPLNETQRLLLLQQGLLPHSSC
# [9] = biological target: Yes (Homo sapiens, UniProt P07947); experiment: Caliper kinase profiling: Yes
# [10] = 10 nM, read-out: Average % Inh @ 10 nM
# [11] = 100 nM, read-out: Average % Inh @ 100 nM
# [12] = 1 μM, read-out: Average % Inh @ 1 μM
# Sequence of RET (P07949 29-1114): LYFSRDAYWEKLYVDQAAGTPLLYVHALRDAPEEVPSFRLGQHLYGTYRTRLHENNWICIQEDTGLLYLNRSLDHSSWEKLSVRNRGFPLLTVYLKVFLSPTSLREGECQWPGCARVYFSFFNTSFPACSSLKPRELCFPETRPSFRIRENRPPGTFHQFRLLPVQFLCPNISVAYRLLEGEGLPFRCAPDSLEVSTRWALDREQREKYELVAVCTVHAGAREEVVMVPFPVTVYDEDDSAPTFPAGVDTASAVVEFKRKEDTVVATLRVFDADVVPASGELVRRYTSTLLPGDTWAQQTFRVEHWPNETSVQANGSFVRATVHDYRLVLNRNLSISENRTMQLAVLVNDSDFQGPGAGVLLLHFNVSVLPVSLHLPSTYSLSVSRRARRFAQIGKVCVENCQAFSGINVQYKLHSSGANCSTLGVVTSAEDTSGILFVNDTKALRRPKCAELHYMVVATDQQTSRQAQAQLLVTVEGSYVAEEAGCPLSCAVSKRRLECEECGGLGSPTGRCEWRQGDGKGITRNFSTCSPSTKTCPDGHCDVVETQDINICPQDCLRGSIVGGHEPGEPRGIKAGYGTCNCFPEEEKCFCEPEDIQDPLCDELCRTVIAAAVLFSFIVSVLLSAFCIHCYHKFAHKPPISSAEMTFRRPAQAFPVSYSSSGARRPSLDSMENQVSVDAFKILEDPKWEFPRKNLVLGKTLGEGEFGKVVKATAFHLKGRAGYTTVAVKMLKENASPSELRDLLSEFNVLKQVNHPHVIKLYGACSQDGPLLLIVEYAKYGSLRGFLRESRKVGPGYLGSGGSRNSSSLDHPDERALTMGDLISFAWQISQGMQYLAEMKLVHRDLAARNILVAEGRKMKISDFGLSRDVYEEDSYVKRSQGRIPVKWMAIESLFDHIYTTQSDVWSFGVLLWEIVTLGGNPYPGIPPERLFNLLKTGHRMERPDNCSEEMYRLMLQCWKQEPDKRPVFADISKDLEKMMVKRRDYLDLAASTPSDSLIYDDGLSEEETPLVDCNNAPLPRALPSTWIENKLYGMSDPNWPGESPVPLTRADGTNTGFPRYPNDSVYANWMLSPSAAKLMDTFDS
# T3 sequence (P42684 whole entry): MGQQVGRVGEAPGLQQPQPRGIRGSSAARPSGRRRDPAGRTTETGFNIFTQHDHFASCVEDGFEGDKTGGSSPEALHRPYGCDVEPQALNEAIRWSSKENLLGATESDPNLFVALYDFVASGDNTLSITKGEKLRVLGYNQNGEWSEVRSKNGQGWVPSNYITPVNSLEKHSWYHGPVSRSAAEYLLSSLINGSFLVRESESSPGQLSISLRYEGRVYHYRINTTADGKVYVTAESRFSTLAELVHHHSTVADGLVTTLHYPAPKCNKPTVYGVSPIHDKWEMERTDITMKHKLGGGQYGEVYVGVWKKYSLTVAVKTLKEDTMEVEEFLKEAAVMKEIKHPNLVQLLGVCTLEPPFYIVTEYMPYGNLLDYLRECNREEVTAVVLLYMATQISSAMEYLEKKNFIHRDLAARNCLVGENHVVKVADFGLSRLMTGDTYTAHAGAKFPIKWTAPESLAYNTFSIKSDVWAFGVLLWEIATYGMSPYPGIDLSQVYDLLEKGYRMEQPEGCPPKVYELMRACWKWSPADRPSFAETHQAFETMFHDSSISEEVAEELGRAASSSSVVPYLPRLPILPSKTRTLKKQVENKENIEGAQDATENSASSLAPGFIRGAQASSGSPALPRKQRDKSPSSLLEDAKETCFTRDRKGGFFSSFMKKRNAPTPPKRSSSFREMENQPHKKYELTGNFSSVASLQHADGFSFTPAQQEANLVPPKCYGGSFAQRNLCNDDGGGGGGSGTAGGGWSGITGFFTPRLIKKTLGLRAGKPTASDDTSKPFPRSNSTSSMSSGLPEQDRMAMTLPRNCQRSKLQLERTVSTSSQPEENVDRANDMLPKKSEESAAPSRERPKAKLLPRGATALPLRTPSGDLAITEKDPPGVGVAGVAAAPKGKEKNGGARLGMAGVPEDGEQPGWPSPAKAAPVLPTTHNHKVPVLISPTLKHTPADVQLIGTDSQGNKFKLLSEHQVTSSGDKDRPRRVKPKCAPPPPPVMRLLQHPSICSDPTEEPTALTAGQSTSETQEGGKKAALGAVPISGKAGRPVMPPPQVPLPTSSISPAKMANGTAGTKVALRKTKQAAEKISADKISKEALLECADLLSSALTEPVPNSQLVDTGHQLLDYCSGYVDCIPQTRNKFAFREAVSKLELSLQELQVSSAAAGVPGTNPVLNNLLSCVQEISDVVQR
# Sequence of Yes (P07947 whole entry): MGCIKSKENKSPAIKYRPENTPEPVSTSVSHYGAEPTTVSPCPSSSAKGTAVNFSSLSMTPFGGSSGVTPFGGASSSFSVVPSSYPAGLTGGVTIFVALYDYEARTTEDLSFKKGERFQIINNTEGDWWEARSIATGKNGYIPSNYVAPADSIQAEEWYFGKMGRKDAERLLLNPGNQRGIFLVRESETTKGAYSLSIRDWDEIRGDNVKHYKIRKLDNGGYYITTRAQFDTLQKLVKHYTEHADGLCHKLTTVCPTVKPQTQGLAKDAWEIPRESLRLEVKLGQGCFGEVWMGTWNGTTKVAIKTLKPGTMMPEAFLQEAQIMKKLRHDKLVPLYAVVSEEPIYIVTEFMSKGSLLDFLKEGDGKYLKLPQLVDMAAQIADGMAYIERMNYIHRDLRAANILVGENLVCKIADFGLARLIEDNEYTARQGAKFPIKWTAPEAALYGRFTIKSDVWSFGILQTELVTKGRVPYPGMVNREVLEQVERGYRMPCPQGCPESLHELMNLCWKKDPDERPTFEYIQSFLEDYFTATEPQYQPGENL
# Sequence of MST1R (Q04912 25-1400): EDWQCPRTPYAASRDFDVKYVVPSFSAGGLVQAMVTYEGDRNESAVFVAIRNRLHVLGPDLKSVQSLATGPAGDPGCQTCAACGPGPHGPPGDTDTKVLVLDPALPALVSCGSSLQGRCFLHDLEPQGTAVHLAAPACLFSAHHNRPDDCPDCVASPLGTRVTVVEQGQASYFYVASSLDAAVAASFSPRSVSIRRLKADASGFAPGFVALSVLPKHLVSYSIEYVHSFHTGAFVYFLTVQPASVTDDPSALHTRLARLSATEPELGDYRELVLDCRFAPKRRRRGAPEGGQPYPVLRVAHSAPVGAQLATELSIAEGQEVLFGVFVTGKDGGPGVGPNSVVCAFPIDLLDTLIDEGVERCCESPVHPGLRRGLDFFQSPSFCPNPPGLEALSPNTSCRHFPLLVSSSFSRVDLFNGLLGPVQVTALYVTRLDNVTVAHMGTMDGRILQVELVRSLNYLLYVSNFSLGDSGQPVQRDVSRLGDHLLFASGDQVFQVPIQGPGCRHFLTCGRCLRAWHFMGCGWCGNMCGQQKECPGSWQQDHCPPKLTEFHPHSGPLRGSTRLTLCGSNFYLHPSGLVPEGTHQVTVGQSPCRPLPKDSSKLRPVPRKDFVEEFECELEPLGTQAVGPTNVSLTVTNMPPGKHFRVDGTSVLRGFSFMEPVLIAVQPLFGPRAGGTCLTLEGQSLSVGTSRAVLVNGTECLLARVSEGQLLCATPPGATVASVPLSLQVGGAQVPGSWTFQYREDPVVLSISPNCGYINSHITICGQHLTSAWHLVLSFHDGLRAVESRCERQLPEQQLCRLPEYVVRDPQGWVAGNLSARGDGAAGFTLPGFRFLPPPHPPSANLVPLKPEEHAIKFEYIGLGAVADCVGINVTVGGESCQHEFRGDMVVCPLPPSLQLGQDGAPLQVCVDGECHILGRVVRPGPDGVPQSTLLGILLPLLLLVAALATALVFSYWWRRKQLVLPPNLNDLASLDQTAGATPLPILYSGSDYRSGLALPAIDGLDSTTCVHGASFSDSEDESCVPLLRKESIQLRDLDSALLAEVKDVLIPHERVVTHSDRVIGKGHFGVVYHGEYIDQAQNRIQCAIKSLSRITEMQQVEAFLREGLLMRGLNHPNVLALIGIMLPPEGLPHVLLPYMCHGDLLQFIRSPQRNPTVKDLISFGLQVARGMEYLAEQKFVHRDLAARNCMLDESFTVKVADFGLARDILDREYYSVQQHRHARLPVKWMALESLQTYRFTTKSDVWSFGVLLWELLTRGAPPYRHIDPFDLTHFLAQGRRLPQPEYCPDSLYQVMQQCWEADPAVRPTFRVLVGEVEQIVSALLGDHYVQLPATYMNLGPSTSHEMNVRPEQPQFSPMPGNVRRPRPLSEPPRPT
structure (smiles),measurement,setting,value
"O=C(Nc1ccc(F)nc1)C1CCCN1c1nc2c(c(Nc3cc(C4CC4)[nH]n3)n1)CCC2 (single isomer, unassigned) [Compound 2b, 1-(4-(5-cyclopropyl-1H-pyrazol-3-ylamino)-6,7-dihydro-5H-cyclopenta[d]pyrimidin-2-yl)-N-(6-fluoropyridin-3-yl)pyrrolidine-2-carboxamide]",inhibition at 1 µM,[1],40 to 59%
same,inhibition at 1 µM,[2],> 60%
same,inhibition at 0.01 µM,[3]; [10],< 39%
same,inhibition at 0.1 µM,[3]; [11],< 39%
same,inhibition at 1 µM,[3]; [12],> 60%
same,inhibition at 1 µM,[4],> 60%
same,inhibition at 1 µM,[5],> 60%
same,inhibition at 0.01 µM,"[6]; NuaK1, 10 nM, read-out: Average % Inh @ 10 nM",< 39%
same,inhibition at 0.1 µM,"[6]; NuaK1, 100 nM, read-out: Average % Inh @ 100 nM",40 to 59%
same,inhibition at 1 µM,"[6]; NuaK1, 1 μM, read-out: Average % Inh @ 1 μM",> 60%
same,inhibition at 0.01 µM,[7]; [10],< 39%
same,inhibition at 0.1 µM,[7]; [11],40 to 59%
same,inhibition at 1 µM,[7]; [12],> 60%
same,inhibition at 0.01 µM,"[8]; TYRO3, 10 nM, read-out: Average % Inh @ 10 nM",< 39%
same,inhibition at 0.1 µM,"[8]; TYRO3, 100 nM, read-out: Average % Inh @ 100 nM",< 39%
same,inhibition at 1 µM,"[8]; TYRO3, 1 μM, read-out: Average % Inh @ 1 μM",> 60%
same,inhibition at 0.01 µM,[9]; [10],< 39%
same,inhibition at 0.1 µM,[9]; [11],40 to 59%
same,inhibition at 1 µM,[9]; [12],> 60%
